Among the data in article PMC12172032, “Chemical and Genetic Validation of an Essential Calcium Entry Channel of Trypanosoma brucei as a Therapeutic Target” (ACS Infectious Diseases, 2025) are IC50 values, retold here.

Structures are written as SMILES.

The target in the experiment is T1, TbCaV (TbCav; FS179; TbCaCh) (Trypanosoma brucei, UniProt Q38BV7).
T1 construct: gene Tb10.70.4750; native full-length channel in intact T. brucei cells, 2693 aa, approx. 301 kDa, single subunit, untagged wild type
T1 sequence (Q38BV7 1-2693): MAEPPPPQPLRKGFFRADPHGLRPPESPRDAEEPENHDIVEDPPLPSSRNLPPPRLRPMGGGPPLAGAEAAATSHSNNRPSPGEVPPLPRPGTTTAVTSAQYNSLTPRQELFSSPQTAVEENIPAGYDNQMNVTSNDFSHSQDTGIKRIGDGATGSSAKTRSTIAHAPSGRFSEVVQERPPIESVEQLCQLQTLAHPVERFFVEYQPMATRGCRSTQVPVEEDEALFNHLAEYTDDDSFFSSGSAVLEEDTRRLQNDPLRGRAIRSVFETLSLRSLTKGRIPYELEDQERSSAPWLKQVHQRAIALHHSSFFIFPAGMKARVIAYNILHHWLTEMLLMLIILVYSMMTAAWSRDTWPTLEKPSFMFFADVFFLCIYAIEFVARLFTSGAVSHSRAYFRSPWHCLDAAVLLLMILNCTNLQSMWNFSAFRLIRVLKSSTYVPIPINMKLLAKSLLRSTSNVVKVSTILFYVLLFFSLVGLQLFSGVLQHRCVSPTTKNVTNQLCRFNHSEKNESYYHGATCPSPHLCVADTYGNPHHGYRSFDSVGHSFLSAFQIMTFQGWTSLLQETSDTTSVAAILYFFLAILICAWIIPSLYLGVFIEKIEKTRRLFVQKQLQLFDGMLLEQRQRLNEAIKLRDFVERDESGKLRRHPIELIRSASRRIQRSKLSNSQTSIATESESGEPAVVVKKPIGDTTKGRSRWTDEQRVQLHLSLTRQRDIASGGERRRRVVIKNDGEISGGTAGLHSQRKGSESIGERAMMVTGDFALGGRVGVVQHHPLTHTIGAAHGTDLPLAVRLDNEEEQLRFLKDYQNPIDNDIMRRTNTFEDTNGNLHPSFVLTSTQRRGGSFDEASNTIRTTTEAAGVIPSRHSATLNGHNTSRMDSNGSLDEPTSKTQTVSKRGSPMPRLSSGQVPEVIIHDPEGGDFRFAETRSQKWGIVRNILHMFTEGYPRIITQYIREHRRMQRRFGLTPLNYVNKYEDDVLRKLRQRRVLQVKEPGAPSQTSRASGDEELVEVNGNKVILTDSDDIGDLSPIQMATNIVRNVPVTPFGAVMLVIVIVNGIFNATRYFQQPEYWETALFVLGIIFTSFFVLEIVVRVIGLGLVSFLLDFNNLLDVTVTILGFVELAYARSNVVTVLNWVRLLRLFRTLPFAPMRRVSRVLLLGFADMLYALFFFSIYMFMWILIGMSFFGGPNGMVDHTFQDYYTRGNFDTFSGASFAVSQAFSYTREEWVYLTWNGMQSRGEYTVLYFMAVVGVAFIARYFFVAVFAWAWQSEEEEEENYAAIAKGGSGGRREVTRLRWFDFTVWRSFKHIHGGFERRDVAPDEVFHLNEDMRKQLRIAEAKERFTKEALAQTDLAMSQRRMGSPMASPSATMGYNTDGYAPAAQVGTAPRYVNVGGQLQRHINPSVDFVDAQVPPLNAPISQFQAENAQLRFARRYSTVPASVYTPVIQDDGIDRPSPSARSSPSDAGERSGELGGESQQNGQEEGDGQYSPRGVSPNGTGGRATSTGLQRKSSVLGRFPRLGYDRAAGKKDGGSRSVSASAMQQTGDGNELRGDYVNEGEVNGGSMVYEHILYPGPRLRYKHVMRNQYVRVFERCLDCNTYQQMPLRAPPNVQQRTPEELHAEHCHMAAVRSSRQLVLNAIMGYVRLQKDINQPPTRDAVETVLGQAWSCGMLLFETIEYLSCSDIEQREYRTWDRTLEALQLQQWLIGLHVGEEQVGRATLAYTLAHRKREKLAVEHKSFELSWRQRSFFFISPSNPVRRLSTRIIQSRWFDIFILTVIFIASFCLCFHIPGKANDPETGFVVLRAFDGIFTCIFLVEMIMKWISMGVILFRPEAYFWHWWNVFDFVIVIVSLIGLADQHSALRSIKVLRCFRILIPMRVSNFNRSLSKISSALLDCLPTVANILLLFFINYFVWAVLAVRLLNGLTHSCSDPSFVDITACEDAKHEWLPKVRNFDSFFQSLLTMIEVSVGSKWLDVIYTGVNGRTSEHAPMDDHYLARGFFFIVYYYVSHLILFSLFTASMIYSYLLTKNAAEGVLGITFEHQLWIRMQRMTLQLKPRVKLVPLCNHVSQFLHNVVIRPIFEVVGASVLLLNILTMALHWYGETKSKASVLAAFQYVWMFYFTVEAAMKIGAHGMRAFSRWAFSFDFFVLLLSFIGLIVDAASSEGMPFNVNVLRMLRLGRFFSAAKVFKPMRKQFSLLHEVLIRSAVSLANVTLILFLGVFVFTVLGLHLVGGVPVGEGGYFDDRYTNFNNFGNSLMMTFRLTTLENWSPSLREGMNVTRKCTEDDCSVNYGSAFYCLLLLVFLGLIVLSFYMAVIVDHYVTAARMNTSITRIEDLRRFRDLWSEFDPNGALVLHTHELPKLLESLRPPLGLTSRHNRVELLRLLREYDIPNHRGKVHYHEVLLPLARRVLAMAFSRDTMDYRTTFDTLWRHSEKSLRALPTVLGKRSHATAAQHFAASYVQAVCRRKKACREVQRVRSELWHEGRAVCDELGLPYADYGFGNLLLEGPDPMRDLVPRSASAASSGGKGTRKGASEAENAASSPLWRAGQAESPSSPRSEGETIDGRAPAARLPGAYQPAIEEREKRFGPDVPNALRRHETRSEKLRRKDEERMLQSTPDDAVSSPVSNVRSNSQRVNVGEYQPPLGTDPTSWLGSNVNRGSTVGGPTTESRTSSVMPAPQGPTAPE
Nature of the experiment: Ca2+ entry into intact T. brucei, Cal-590 fluorescence. The class given is cell-based. The conditions noted are these: wild-type T. brucei BSF (Figure 9A inset); 1.8 mM Ca2+ added after 100 μM EGTA, BAG buffer pH 7.0; whole-cell Ca2+ entry attributed to TbCaV, direct binding not shown.

The term IC50 denotes the midpoint of a concentration-inhibition curve. High values mean weaker potency, low ones greater potency.

In the case of `CC(=O)Nc1ccc([N+](=O)[O-])c2nonc12` [NBD-A, N-(7-nitro-2,1,3-benzoxadiazol-4-yl) acetamide], the IC50 came out at 1460 ± 30 nM.
